# Experimental data taken from US8859529B2, “Compounds for the treatment of inflammatory disorders” (Merck Sharp & Dohme Corp., priority 2008, dated 2014).
# Experiment: Area under the curve determinations of plasma levels in rats (rrAUC)
# Format: in vivo
# Details: rapid rat AUC of the drug (parent) in plasma; oral 10 mg/kg, fasted rats, blood 0.5-6 h post-dosing
# Method: To gain insight into the pharmacokinetic properties of the compounds of formula (I), plasma levels of the compounds in rats were determined according to the protocol described in Korfmacher, W. A,; Cox, K. A.; Ng, K. J.; Veals, J.; Hsieh, Y.; Wainhaus, S.; Broske, L; Prelusky, D.; Nomeir, A.; White, R. E. Rapid Commun. Mass Spectrorn, 2001, 15, 335. Briefly, rats, after an overnight fast, were dosed orally with the test compound at a dose of 10 mg/kg in a 5 mL/kg dose volume. Blood was collected at 0.5, 1, 2, 3, 4, and 6 h post-dosing. Mass spectrometry using high performance liquid chromatography was used to identify and measure the concentrations of the test compounds in the plasma at the various time points. The parent ion of each test compound was used to identify and quantitate the compounds in plasma.
row,Structure (SMILES),PK (rrAUC) parent
1,COc1ccc2c(c1F)C(=O)N(C[C@@]1(c3cc4cc5c(c(F)c4o3)C(=O)NC5)NC(=O)N(COC(=O)C(C)(C)C)C1=O)C2 [Compound 7],1.898 µM·h
2,COc1ccc2c(c1F)C(=O)N(C[C@@]1(c3cc4c5c(ccc4o3)CNC5=O)NC(=O)N(COC(=O)C(C)(C)C)C1=O)C2 [Compound 8],2.193 µM·h
3,COc1ccc2c(c1)C(=O)N(C[C@@]1(c3cc4nc(N5C[C@@H](O)CC5=O)ccc4o3)NC(=O)N(COC(=O)C(C)(C)C)C1=O)C2 [Compound 23],60.895 µM·h
4,COc1ccc2c(c1F)C(=O)N(C[C@@]1(c3cc4cc([C@@]5(C)NC(=O)NC5=O)c(F)cc4o3)NC(=O)N(COC(=O)C(C)(C)C)C1=O)C2 [Compound 30],0.335 µM·h
5,COc1ccc2c(c1)C(=O)N(C[C@@]1(c3cc4ncccc4o3)NC(=O)N(C)C1=O)C2 [Compound 45],0.947 µM·h
6,CCN1C(=O)N[C@@](CN2Cc3ccc(OC)cc3C2=O)(c2cc3ncccc3o2)C1=O [Compound 46],0.868 µM·h
7,COCCOCCOCCN1C(=O)N[C@@](CN2Cc3ccc(OC)cc3C2=O)(c2cc3ncccc3o2)C1=O [Compound 47],0.019 µM·h
8,COc1ccc2c(c1)C(=O)N(C[C@@]1(c3cc4cnccc4o3)NC(=O)N(Cc3cccnc3)C1=O)C2 [Compound 48.1],0 µM·h
9,COCCOCCOCCN1C(=O)N[C@@](CN2Cc3ccc(OC)cc3C2=O)(c2cc3cnccc3o2)C1=O [Compound 49],0.088 µM·h
10,COc1ccc2c(c1)C(=O)N(C[C@@]1(c3cc4cnccc4o3)NC(=O)N(CCN3CCOCC3)C1=O)C2 [Compound 50],0 µM·h
11,COCN1C(=O)N[C@@](CN2Cc3ccc(OC)cc3C2=O)(c2cc3cnccc3o2)C1=O [Compound 52],1.072 µM·h
12,CCOCN1C(=O)N[C@@](CN2Cc3ccc(OC)cc3C2=O)(c2cc3cnccc3o2)C1=O [Compound 53],5.183 µM·h
13,CCCCCCCCOCN1C(=O)N[C@@](CN2Cc3ccc(OC)cc3C2=O)(c2cc3cnccc3o2)C1=O [Compound 54],0.571 µM·h
14,COCN1C(=O)N[C@@](CN2Cc3ccc(OC)c(F)c3C2=O)(c2cc3cc4c(c(F)c3o2)C(=O)NC4)C1=O [Compound 56],0 µM·h
15,COc1ccc2c(c1F)C(=O)N(C[C@@]1(c3cc4cc5c(c(F)c4o3)C(=O)NC5)NC(=O)N(COCc3ccccc3)C1=O)C2 [Compound 57],2.244 µM·h
16,CCOC(=O)CN1C(=O)N[C@@](CN2Cc3ccc(OC)cc3C2=O)(c2cc3cnccc3o2)C1=O [Compound 58.2],0 µM·h
17,COCN1C(=O)N[C@@](CN2Cc3ccc(OC)cc3C2=O)(c2cc3ncccc3o2)C1=O [Compound 58],2.125 µM·h
18,COc1ccc2c(c1)C(=O)N(C[C@@]1(c3cc4cnccc4o3)NC(=O)N(C(C)OC(=O)OC3COCOC3)C1=O)C2 (stereo partly shown) [Compound 60.1],0 µM·h
19,CCOC(=O)N(C)CCOC(=O)OCN1C(=O)N[C@@](CN2Cc3ccc(OC)cc3C2=O)(c2cc3cnccc3o2)C1=O [Compound 63.5],0 µM·h
20,COc1ccc2c(c1)C(=O)N(C[C@@]1(c3cc4cnccc4o3)NC(=O)N(COC(=O)OC(C)(C)C)C1=O)C2 [Compound 63],0 µM·h
21,COc1ccc2c(c1)C(=O)N(C[C@@]1(c3cc4cnccc4o3)NC(=O)N(COC(=O)c3ccccc3)C1=O)C2 [Compound 66],1.861 µM·h
22,COc1ccc2c(c1)C(=O)N(C[C@@]1(c3cc4cnccc4o3)NC(=O)N(COC(=O)N(C)C)C1=O)C2 [Compound 69],13.539 µM·h
